Measurements taken from patent US9365587B2, “Synthesis of carbamoylpyridone HIV integrase inhibitors and intermediates” (Shionogi & Co., Ltd., priority 2008, dated 2016).

Assays:
Details in all cases: crystal
[1] = pharmacokinetics of the crystals (BA, Cmax, Tmax); assay type: in vivo
[2] = solubility of the crystals in water or saline; assay type: physicochemical
[3] = stability of the crystals against heat or light; assay type: physicochemical

bioavailability (BA) [1]: high
maximum drug concentration (Cmax) [1]: high
maximum drug concentration time (Tmax) [1]: short
solubility in water or saline [2]: high
stability against heat or light [3]: high
Structure (SMILES): C[C@@H]1CCO[C@H]2Cn3cc(C(=O)NCc4ccc(F)cc4F)c(=O)c(O)c3C(=O)N12 [Compound 13]
